Assay results published in patent US7109242B2, “Carboxylic compound and medicine comprising the same” (Kowa Company, Ltd., priority 2003, dated 2006).
Counter-ions that a name gives are not always drawn.

How the values were obtained:
C57BL/KsJ db/db mouse = assay: Actions of lowering plasma glucose, insulin and triglyceride in vivo in db/db mice; conditions: for Reduction rate of plasma glucose / Reduction rate of plasma insulin / Reduction rate of plasma triglyceride: blood two hours after administration on 14th day; for Plasma glucose reducing action (ED25): oral once a day for 14 days, dose required for reduction of plasma glucose concentration by 25%, vehicle group as 100%
Excerpt: The compounds of the present invention and the aforementioned Compound A and pioglitazone hydrochloride each as a reference compound were subjected to the measurements of the actions of lowering plasma glucose, insulin, and triglyceride in vivo according to the following method (Metabolism, 48, pp34–40, 1999, Journal of Medicinal Chemistry, 44, pp2601–2611, 2001).
C57BL/KsJ db/db mouse (Journal of Clinical Investigation, 85, pp 962–967, 1990) was used as an experimental animal, which was developed in The Jackson Laboratory (USA) and is known as a model animal with obesity, hyperlipemia, hyperinsulinemia, and insulin resistance.
Bloods were collected from seven weeks old db/db mice from their orbital sinus by using heparin-treated capillary tubes. After centrifugation of the bloods, plasma was collected and then subjected to measurements of concentrations of plasma glucose, insulin, and triglyceride to divide the animals. From the next day of the day of blood collection, the administrations of the compounds were started. The compounds were orally administered once a day for 14 days. On the 14th day, blood was collected from orbital sinus two hours after the administration of the compounds. Plasma was collected, and subjected to measurements of concentrations of plasma glucose, insulin, and triglyceride.
The dose required for reduction of plasma glucose concentration by 25% (ED25) was obtained using the value of the vehicle administered group as 100% (Arznimittel-Forschung, 40, pp156–162, 1990).

PPAR γ = molecular target: T1, PPAR γ (Homo sapiens, UniProt P37231); conditions: mode of action of thiazolidinedione type compounds; cited from earlier work
T1 sequence (P37231 1-505): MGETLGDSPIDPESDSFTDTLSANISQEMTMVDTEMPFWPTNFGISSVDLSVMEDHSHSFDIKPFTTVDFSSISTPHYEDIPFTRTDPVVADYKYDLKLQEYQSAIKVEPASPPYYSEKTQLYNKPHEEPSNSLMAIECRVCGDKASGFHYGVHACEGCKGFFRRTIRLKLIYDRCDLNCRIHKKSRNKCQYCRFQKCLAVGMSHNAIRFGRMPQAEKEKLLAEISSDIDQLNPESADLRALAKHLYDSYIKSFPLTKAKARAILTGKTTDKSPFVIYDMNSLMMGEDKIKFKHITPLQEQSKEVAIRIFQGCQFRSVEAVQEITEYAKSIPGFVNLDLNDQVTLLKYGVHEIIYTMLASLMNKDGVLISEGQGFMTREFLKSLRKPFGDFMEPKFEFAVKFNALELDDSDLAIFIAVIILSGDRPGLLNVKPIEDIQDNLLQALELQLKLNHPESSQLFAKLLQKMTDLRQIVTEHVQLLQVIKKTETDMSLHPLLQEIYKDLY

[1] = 0.5 mg/kg orally once a day for 14 days, 0.5 mg/kg
[2] = 1.5 mg/kg orally once a day for 14 days, 1.5 mg/kg
[3] = 5 mg/kg orally once a day for 14 days, 5 mg/kg
[4] = 3 mg/kg orally once a day for 14 days
[5] = 10 mg/kg orally once a day for 14 days
[6] = 30 mg/kg orally once a day for 14 days
[7] = 1 mg/kg orally once a day for 14 days

Compound	Plasma glucose reducing action (ED25) (C57BL/KsJ db/db mouse) [mg/kg]	Reduction rate of plasma glucose (C57BL/KsJ db/db mouse; [4])	Reduction rate of plasma insulin (C57BL/KsJ db/db mouse; [4])	Reduction rate of plasma triglyceride (C57BL/KsJ db/db mouse; [4])	Reduction rate of plasma glucose (C57BL/KsJ db/db mouse; [5])	Reduction rate of plasma insulin (C57BL/KsJ db/db mouse; [5])	Reduction rate of plasma triglyceride (C57BL/KsJ db/db mouse; [5])	Reduction rate of plasma glucose (C57BL/KsJ db/db mouse; [6])	Reduction rate of plasma insulin (C57BL/KsJ db/db mouse; [6])	Reduction rate of plasma triglyceride (C57BL/KsJ db/db mouse; [6])	further results
O=C(O)C(Cl)(Cl)CCCCCCCC(O)CCc1ccc(Cl)cc1 (single isomer, unassigned; (+)) [Example 5(4), (+)-2,2-dichloro-12-(4-chlorophenyl)-10-hydroxydodecanoic acid]	0.5	–	–	–	–	–	–	–	–	–	Reduction rate of plasma glucose (C57BL/KsJ db/db mouse; [1]): 20.7 ± 14.3; Reduction rate of plasma insulin (C57BL/KsJ db/db mouse; [1]): −22.0 ± 84.1; Reduction rate of plasma triglyceride (C57BL/KsJ db/db mouse; [1]): 42.0 ± 17.3; Reduction rate of plasma glucose (C57BL/KsJ db/db mouse; [2]): 40.6 ± 5.8; Reduction rate of plasma insulin (C57BL/KsJ db/db mouse; [2]): 39.5 ± 37.5; Reduction rate of plasma triglyceride (C57BL/KsJ db/db mouse; [2]): 48.3 ± 6.9; Reduction rate of plasma glucose (C57BL/KsJ db/db mouse; [3]): 42.4 ± 11.4; Reduction rate of plasma insulin (C57BL/KsJ db/db mouse; [3]): 43.8 ± 26.3; Reduction rate of plasma triglyceride (C57BL/KsJ db/db mouse; [3]): 44.6 ± 9.7; Plasma glucose reducing action (ED25) (C57BL/KsJ db/db mouse; listed as Example 5 (4)): 0.5 mg/kg
O=C(O)C(Cl)(Cl)CCCCCCCCC(O)Cc1ccc(Cl)cc1 (stereo not shown) [Example 4(4), 2,2-dichloro-12-(4-chlorophenyl)-11-hydroxydodecanoic acid]	1.1	35.0 ± 21.2	−19.8 ± 71.8	45.5 ± 13.9	65.2 ± 8.0	20.3 ± 24.9	58.8 ± 3.7	67.2 ± 6.8	51.1 ± 20.2	54.1 ± 6.6	–
O=C(O)C(Cl)(Cl)CCCCCCCCCC(O)c1ccc(Cl)cc1 (stereo not shown) [Example 3(4), 2,2-dichloro-12-(4-chlorophenyl)-12-hydroxydodecanoic acid]	2.4	29.3 ± 28.7	−2.8 ± 46.6	23.2 ± 24.7	53.4 ± 14.7	39.0 ± 10.3	40.6 ± 8.9	74.5 ± 3.0	61.7 ± 18.5	25.8 ± 24.7	–
O=C(O)C(Cl)(Cl)CCCCCCCC(O)CCc1ccc(Cl)cc1 (stereo not shown) [Example 2(4), 2,2-dichloro-12-(4-chlorophenyl)-10-hydroxydodecanoic acid]	0.6	44.4 ± 17.0	−12.5 ± 58.1	53.2 ± 6.9	66.6 ± 4.1	39.1 ± 21.3	54.1 ± 5.5	75.2 ± 3.1	64.3 ± 10.1	55.7 ± 6.3	Plasma glucose reducing action (ED25) (C57BL/KsJ db/db mouse; listed as Example 2 (4)): 0.6 mg/kg
O=C(O)C(Cl)(Cl)CCCCCCCCCCc1ccc(Cl)cc1 [Compound A]	2.8	25.4 ± 17.7	7.4 ± 18.7	27.5 ± 17.5	65.3 ± 5.0	10.7 ± 61.6	54.6 ± 4.1	–	–	–	Reduction rate of plasma glucose (C57BL/KsJ db/db mouse; [7]): −5.0 ± 19.5; Reduction rate of plasma insulin (C57BL/KsJ db/db mouse; [7]): 0.7 ± 77.6; Reduction rate of plasma triglyceride (C57BL/KsJ db/db mouse; [7]): 23.4 ± 15.3; PPAR γ activating action (PPAR γ): no PPAR γ activating action
CCc1ccc(CCOc2ccc(CC3SC(=O)NC3=O)cc2)nc1 (stereo not shown) [Pioglitazone hydrochloride, reference compound]	8.3	13.4 ± 18.3	−24.7 ± 119.3	9.4 ± 15.9	22.3 ± 22.8	−18.7 ± 52.5	25.4 ± 16.9	45.2 ± 21.2	13.9 ± 22.7	38.2 ± 8.1	–
O=C(O)C(Cl)(Cl)CCCCCCCC(O)CCc1ccc(Cl)cc1 (single isomer, unassigned; (-)) [Example 5(5), (−)-2,2-dichloro-12-(4-chlorophenyl)-10-hydroxydodecanoic acid]	1.7	–	–	–	–	–	–	–	–	–	Reduction rate of plasma glucose (C57BL/KsJ db/db mouse; [1]): −10.3; Reduction rate of plasma insulin (C57BL/KsJ db/db mouse; [1]): 20.8 ± 32.0; Reduction rate of plasma triglyceride (C57BL/KsJ db/db mouse; [1]): 23.0 ± 13.8; Reduction rate of plasma glucose (C57BL/KsJ db/db mouse; [2]): 28.5 ± 10.7; Reduction rate of plasma insulin (C57BL/KsJ db/db mouse; [2]): 20.4 ± 38.0; Reduction rate of plasma triglyceride (C57BL/KsJ db/db mouse; [2]): 40.5 ± 15.3; Reduction rate of plasma glucose (C57BL/KsJ db/db mouse; [3]): 49.2 ± 9.6; Reduction rate of plasma insulin (C57BL/KsJ db/db mouse; [3]): 68.9 ± 13.2; Reduction rate of plasma triglyceride (C57BL/KsJ db/db mouse; [3]): 37.6 ± 11.3
